Measurements: article PMC12571268, “Functional expression of a Mo-dependent formate dehydrogenase in Escherichia coli under aerobic conditions” (PLOS One, 2025)

Biological target: T1, TsFDH (formate dehydrogenase of Thiobacillus sp. KNK65MA) (Thiobacillus sp. KNK65MA, UniProt Q76EB7)
T1 construct: gene fdh65MA; full-length synthetic gene codon-optimized for E. coli on pZE plasmid pGEN1395 in E. coli delta-lpd; clarified lysate; metal-independent
T1 sequence (Q76EB7 1-401): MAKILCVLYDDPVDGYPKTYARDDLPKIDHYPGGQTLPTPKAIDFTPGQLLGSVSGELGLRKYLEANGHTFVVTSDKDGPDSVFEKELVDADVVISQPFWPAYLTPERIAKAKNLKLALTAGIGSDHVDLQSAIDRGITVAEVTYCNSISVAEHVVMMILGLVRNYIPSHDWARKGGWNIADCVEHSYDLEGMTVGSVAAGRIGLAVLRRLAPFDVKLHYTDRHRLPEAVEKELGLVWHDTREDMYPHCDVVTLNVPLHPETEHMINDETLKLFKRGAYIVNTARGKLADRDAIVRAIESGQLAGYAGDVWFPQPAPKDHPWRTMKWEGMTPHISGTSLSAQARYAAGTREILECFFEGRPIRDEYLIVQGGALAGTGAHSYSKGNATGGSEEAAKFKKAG
Assay: NADH formation at […] nm in clarified lysate, blank without formate subtracted
Format: biochemical
Conditions: 100 mM formate, 5 mM NAD+, 100 mM Tris pH 9.0; plasmid-free strains as control

Compound: O=CO [formate]
- NADH formation at 340 nm in clarified lysate, blank without formate subtracted: lysates of the strains containing the FDH from Thiobacillus yielded higher specific activity
